# In US10308637B2 (LifeSci Pharmaceuticals, Inc., priority 2015, dated 2019):
# Biological target: human plasma kallikrein (Homo sapiens (Human), UniProt P03952)
# Experiment: In vitro enzyme inhibition of human plasma kallikrein (Pro-Phe-Arg-AMC cleavage)
# Format: biochemical
# Details: Pro-Phe-Arg-AMC substrate, 37° C., read-out: hPK IC50
# Experimental: The ability of the compounds disclosed herein to inhibit human plasma kallikrein activity was quantified according to the procedures below.
# A 10 mM solution of the test compound was made in DMSO. […] A control tube containing only DMSO is included. 16 μL of each compound test solution was combined with 384 μL of assay buffer (50 mM Tris-HCl pH 7.5, 150 mM NaCl, 0.01% Triton X-100) to yield a “4× test compound buffer stock”.
# These solutions are hereby referred to as 4×hPK and 2×PFR-AMC, respectively.
# 50 μL was removed from this mixture and placed into duplicate wells on a Microfluor 1Black U-bottom microtiter plate (Thermo Scientific). This plate was incubated for 5 minutes at 37° C. To each well, 50 µL of pre-warmed 2×PFR-AMC was added to start the enzymatic reaction. Cleavage of PFR-AMC was monitored in a Biotek Synergy H4 reader set at 37° C. Readings are taken every 43 seconds for 1 hour. […] The IC50 is calculated using the Gen5 (Biotek Instruments).
# The ability of the compounds in Table 3 to inhibit human plasma kallikrein activity was determined.
# human plasma kallikrein, sequence (P03952 391-638 limits assumed): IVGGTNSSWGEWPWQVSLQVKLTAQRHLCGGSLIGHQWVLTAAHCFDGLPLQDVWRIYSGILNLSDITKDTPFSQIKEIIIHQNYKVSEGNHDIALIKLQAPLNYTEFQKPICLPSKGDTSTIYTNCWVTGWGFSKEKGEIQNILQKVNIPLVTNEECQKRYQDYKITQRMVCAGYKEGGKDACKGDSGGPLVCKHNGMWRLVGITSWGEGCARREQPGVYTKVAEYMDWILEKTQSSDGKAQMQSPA
# human plasma kallikrein, sequence (P03952 20-390 partner limits assumed): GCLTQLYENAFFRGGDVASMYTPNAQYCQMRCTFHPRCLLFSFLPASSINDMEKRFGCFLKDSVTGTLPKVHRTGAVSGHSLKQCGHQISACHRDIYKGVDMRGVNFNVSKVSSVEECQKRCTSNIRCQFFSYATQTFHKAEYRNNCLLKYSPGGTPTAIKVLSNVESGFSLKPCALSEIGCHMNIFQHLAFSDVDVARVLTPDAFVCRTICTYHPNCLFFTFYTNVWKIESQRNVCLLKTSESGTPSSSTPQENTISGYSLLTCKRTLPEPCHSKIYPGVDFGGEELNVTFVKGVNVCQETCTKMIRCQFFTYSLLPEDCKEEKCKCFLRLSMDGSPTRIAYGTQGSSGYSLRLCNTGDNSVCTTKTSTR
row,Compound,IC50 [µM]
1,"Cc1cc(N)nc(C)c1CNC(=O)c1cc(Cc2ccc3ncc(Cl)cc3c2)nc(C(=O)O)c1 [Example 209, 4-((6-amino-2,4-dimethylpyridin-3-yl)methylcarbamoyl)-6-((3-chloroquinolin-6-yl)methyl)picolinic Acid]",< 0.1
2,N-(3-chloro-6-fluoro-1H-indol-5-ylmethyl)-2-(2-cyano-quinolin-6-ylmethyl)-isonicotinamide [Example 130],< 0.1

# Tested on: not listed separately
# Experiment: Contact Assay (percentage inhibition from fluorescence intensity)
# Format: biochemical
# Details: not given
# Experimental: The percentage inhibition was calculated using the following equation:
# [formula] where, Mean(BG) is the average value of the fluorescence intensity of the background wells and Mean(PC) is the average value of the fluorescence intensity of the positive control wells.
# Table 4 provides the EC50 values of various compounds disclosed herein.
row,Compound,EC50 [µM]
1,"Cc1cc(N)nc(C)c1CNC(=O)c1cc(Cc2ccc3ncc(Cl)cc3c2)nc(C(=O)O)c1 [Example 209, 4-((6-amino-2,4-dimethylpyridin-3-yl)methylcarbamoyl)-6-((3-chloroquinolin-6-yl)methyl)picolinic Acid]",0.1 to 1
2,"O=C(NCc1cc2c(Cl)c[nH]c2cc1F)c1ccnc(Cc2ccc3ncc(C(F)(F)F)cc3c2)c1 [Example 230, N-((3-chloro-6-fluoro-1H-indol-5-yl)methyl)-2-((3-(trifluoromethyl)quinolin-6-yl)methyl)isonicotinamide]",0.1 to 1
3,"O=C(NCc1cnc2[nH]cc(Cl)c2c1)c1ccnc(Cc2ccc3ncc(C(F)(F)F)cc3c2)c1 [Example 231, N-((3-chloro-1H-pyrrolo[2,3-b]pyridin-5-yl)methyl)-2-((3-(trifluoromethyl)quinolin-6-yl)methyl)isonicotinamide]",0.1 to 1
4,"Nc1nccc2cc(CNC(=O)c3ccnc(Cc4ccc5ncc(C(F)(F)F)cc5c4)c3)ccc12 [Example 232, N-((1-aminoisoquinolin-6-yl)methyl)-2-((3-(trifluoromethyl)quinolin-6-yl)methyl)isonicotinamide]",≤ 0.1
5,"O=C(NCc1ccc2[nH]cc(Cl)c2c1F)c1ccnc(Cc2ccc3ncc(C(F)(F)F)cc3c2)c1 [Example 234, N-((3-chloro-4-fluoro-1H-indol-5-yl)methyl)-2-((3-(trifluoromethyl)quinolin-6-yl)methyl)isonicotinamide]",0.1 to 1
6,"Cc1cc(N)nc(C)c1CNC(=O)c1ccnc(Cc2cc(S(N)(=O)=O)c3ncc(Cl)cc3c2)c1 [Example 235, N-((6-amino-2,4-dimethylpyridin-3-yl)methyl)-2-((3-chloro-8-sulfamoylquinolin-6-yl)methyl)isonicotinamide]",≤ 0.1
7,Cc1nc(N)ccc1CNC(=O)c1ccnc(Cc2cc(S(N)(=O)=O)c3ncc(Cl)cc3c2)c1 [Example 236],≤ 0.1
8,"Cc1cc(N)nc(C)c1CNC(=O)c1ccnc(Cc2ccc3nc(C)c(Cl)cc3c2)c1 [Example 238, N-((6-amino-2,4-dimethylpyridin-3-yl)methyl)-2-((3-chloro-2-methylquinolin-6-yl)methyl)isonicotinamide]",≤ 0.1
9,"Cc1nc2ccc(Cc3cc(C(=O)NCc4ccc(N)nc4C)ccn3)cc2cc1Cl [Example 239, N-((6-amino-2-methylpyridin-3-yl)methyl)-2-((3-chloro-2-methylquinolin-6-yl)methyl)isonicotinamide]",0.1 to 1
10,"Cc1cc(N)nc(C)c1CNC(=O)c1ccnc(Cc2cc(CN)c3ncc(Cl)cc3c2)c1 [Example 241, N-((6-amino-2,4-dimethylpyridin-3-yl)methyl)-2-((8-(aminomethyl)-3-chloroquinolin-6-yl)methyl)isonicotinamide]",≤ 0.1
11,"Cc1cc(N)nc(C)c1CNC(=O)c1ccnc(Cc2ccc3ncc(C4CC4)cc3c2)c1 [Example 243, N-((6-amino-2,4-dimethylpyridin-3-yl)methyl)-2-((3-cyclopropylquinolin-6-yl)methyl)isonicotinamide]",≤ 0.1
12,"O=C(NCc1cc2c(Cl)c[nH]c2cc1F)c1ccnc(Cc2ccc3ncc(C4CC4)cc3c2)c1 [Example 245, N-((3-chloro-6-fluoro-1H-indol-5-yl)methyl)-2-((3-cyclopropylquinolin-6-yl)methyl)isonicotinamide]",0.1 to 1
13,"O=C(NCc1cnc2[nH]cc(Cl)c2c1)c1ccnc(Cc2ccc3ncc(C4CC4)cc3c2)c1 [Example 246, N-((3-chloro-1H-pyrrolo[2,3-b]pyridin-5-yl)methyl)-2-((3-cyclopropylquinolin-6-yl)methyl)isonicotinamide]",0.1 to 1
14,"Nc1nccc2cc(CNC(=O)c3ccnc(Cc4ccc5ncc(C6CC6)cc5c4)c3)ccc12 [Example 247, N-((1-aminoisoquinolin-6-yl)methyl)-2-((3-cyclopropylquinolin-6-yl)methyl)isonicotinamide]",≤ 0.1
15,"O=C(NCc1ccc2[nH]cc(Cl)c2c1F)c1ccnc(Cc2ccc3ncc(C4CC4)cc3c2)c1 [Example 248, N-((3-chloro-4-fluoro-1H-indol-5-yl)methyl)-2-((3-cyclopropylquinolin-6-yl)methyl)isonicotinamide]",0.1 to 1
16,"O=C(NCc1n[nH]c2ccc(Cl)cc12)c1ccnc(Cc2ccc3ncc(C4CC4)cc3c2)c1 [Example 249, N-((5-chloro-1H-indazol-3-yl)methyl)-2-((3-cyclopropylquinolin-6-yl)methyl)isonicotinamide]",0.1 to 1

row,Compound,EC50 [µM]
1,"Cc1nc(N)ccc1CNC(=O)c1ccnc(Cc2cc(CN)c3ncc(Cl)cc3c2)c1 [Example 253, N-((6-amino-2-methylpyridin-3-yl)methyl)-2-((8-(aminomethyl)-3-chloroquinolin-6-yl)methyl)isonicotinamide]",≤ 0.1
2,"Cc1cc(N)nc(C)c1CNC(=O)c1ccnc(Cc2ccc3ncc(C(C)C)cc3c2)c1 [Example 254, N-((6-amino-2,4-dimethylpyridin-3-yl)methyl)-2-((3-isopropylquinolin-6-yl)methyl)isonicotinamide]",≤ 0.1
3,"CCCc1cnc2ccc(Cc3cc(C(=O)NCc4c(C)cc(N)nc4C)ccn3)cc2c1 [Example 255, N-((6-amino-2,4-dimethylpyridin-3-yl)methyl)-2-((3-propylquinolin-6-yl)methyl)isonicotinamide]",≤ 0.1
4,"COc1cnc2ccc(Cc3cc(C(=O)NCc4c(C)cc(N)nc4C)ccn3)cc2c1 [Example 264, N-((6-amino-2,4-dimethylpyridin-3-yl)methyl)-2-((3-methoxyquinolin-6-yl)methyl)isonicotinamide]",≤ 0.1
5,"Cc1cc(N)nc(C)c1CNC(=O)c1ccnc(Cc2cc(-c3nnn[nH]3)c3ncc(Cl)cc3c2)c1 [Example 272, N-((6-amino-2,4-dimethylpyridin-3-yl)methyl)-2-((3-chloro-8-(1H-tetrazol-5-yl)quinolin-6-yl)methyl)isonicotinamide]",0.1 to 1
6,"Cc1cc(N)nc(C)c1CNC(=O)c1ccnc(C(O)c2ccc3ncc(Cl)cc3c2)c1 (stereo not shown) [Example 275, N-((6-amino-2,4-dimethylpyridin-3-yl)methyl)-2-((3-chloroquinolin-6-yl)(hydroxy)methyl)isonicotinamide]",0.1 to 1
7,"Cc1cc(N)nc(C)c1CNC(=O)c1ccnc(C(N)c2ccc3ncc(Cl)cc3c2)c1 (stereo not shown) [Example 276, 2-[Amino-(3-chloro-quinolin-6-yl)-methyl]-N-(6-amino-2,4-dimethyl-pyridin-3-ylmethyl)-isonicotinamide]",0.1 to 1
8,"Cc1cc(N)nc(C)c1CNC(=O)c1ccnc(C(C)(O)c2ccc3ncc(Cl)cc3c2)c1 (stereo not shown) [Example 277, N-((6-amino-2,4-dimethylpyridin-3-yl)methyl)-2-(1-(3-chloroquinolin-6-yl)-1-hydroxyethyl)isonicotinamide]",0.1 to 1
9,"Cc1nc(N)ccc1CNC(=O)c1ccnc(Cc2ccc3ncc(CC(F)F)cc3c2)c1 [Example 279, N-((6-amino-2-methylpyridin-3-yl)methyl)-2-((3-(2,2-difluoroethyl)quinolin-6-yl)methyl)isonicotinamide]",0.1 to 1
10,"CCc1cnc2ccc(Cc3cc(C(=O)NCc4ccc5c(N)nccc5c4)ccn3)cc2c1 [Example 283, N-((1-aminoisoquinolin-6-yl)methyl)-2-((3-ethylquinolin-6-yl)methyl)isonicotinamide]",≤ 0.1
11,"CCc1cnc2ccc(Cc3cc(C(=O)NCc4c(C)cc(N)nc4C)ccn3)cc2c1 [Example 286, N-((6-amino-2,4-dimethylpyridin-3-yl)methyl)-2-((3-ethylquinolin-6-yl)methyl)isonicotinamide]",≤ 0.1
12,"Cc1cnc2c(S(N)(=O)=O)cc(Cc3cc(C(=O)NCc4cc5c(Cl)c[nH]c5cc4F)ccn3)cc2c1 [Example 287, N-((3-chloro-6-fluoro-1H-indol-5-yl)methyl)-2-((3-methyl-8-sulfamoylquinolin-6-yl)methyl)isonicotinamide]",≤ 0.1
13,"Cc1cnc2c(S(N)(=O)=O)cc(Cc3cc(C(=O)NCc4n[nH]c5ccc(Cl)cc45)ccn3)cc2c1 [Example 288, N-((5-chloro-1H-indazol-3-yl)methyl)-2-((3-methyl-8-sulfamoylquinolin-6-yl)methyl)isonicotinamide]",0.1 to 1
14,"Cc1cnc2c(S(N)(=O)=O)cc(Cc3cc(C(=O)NCc4ccc5c(N)nccc5c4)ccn3)cc2c1 [Example 289, N-((1-aminoisoquinolin-6-yl)methyl)-2-((3-methyl-8-sulfamoylquinolin-6-yl)methyl)isonicotinamide]",≤ 0.1
15,"Cc1cnc2c(S(N)(=O)=O)cc(Cc3cc(C(=O)NCc4ccc5[nH]cc(Cl)c5c4F)ccn3)cc2c1 [Example 290, N-((3-chloro-4-fluoro-1H-indol-5-yl)methyl)-2-((3-methyl-8-sulfamoylquinolin-6-yl)methyl)isonicotinamide]",0.1 to 1
16,"Cc1cnc2c(S(N)(=O)=O)cc(Cc3cc(C(=O)NCc4cnc5[nH]cc(Cl)c5c4)ccn3)cc2c1 [Example 291, N-((3-chloro-1H-pyrrolo[2,3-b]pyridin-5-yl)methyl)-2-((3-methyl-8-sulfamoylquinolin-6-yl)methyl)isonicotinamide]",≤ 0.1
